In patent publication US12077503B2, “Substituted cyclic amides and their use as herbicides” (FMC CORPORATION, priority 2015, dated 2024):

Key:
Test in all cases: Test C preemergence
Assay type in all cases: in vivo
[1] = system: corn (Zea mays); conditions: for Plant response rating, Corn: scale 0 to 100, 0 no effect, 100 complete control
Procedure, shortened: (§1)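 Assessment: visual, 13–15 d after treatment, 0 (no effect) to 100 (complete control) relative to controls. Treatment: preemergence to seeds in loam-sand soil, or postemergence to 1- to 4-leaf plants in peat-based medium. Formulation: non-phytotoxic solvent mixture with surfactant.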

[2] = system: lambsquarters (Chenopodium album); conditions: for Plant response rating, Lambsquarters: scale 0 to 100, 0 no effect, 100 complete control
Procedure, shortened: as §1

[3] = system: blackgrass (Alopecurus myosuroides); conditions: for Plant response rating, Blackgrass: scale 0 to 100, 0 no effect, 100 complete control
Procedure, shortened: as §1

[4] = system: waterhemp (common waterhemp, Amaranthus rudis); conditions: for Plant response rating, Waterhemp: scale 0 to 100, 0 no effect, 100 complete control
Procedure, shortened: as §1

[5] = system: johnsongrass (Sorghum halepense); conditions: for Plant response rating, Johnsongrass: scale 0 to 100, 0 no effect, 100 complete control
Procedure, shortened: as §1

[6] = system: pigweed (Amaranthus retroflexus); conditions: for Plant response rating, Pigweed: scale 0 to 100, 0 no effect, 100 complete control
Procedure, shortened: as §1

[7] = system: ragweed (common ragweed, Ambrosia elatior); conditions: for Plant response rating, Ragweed: scale 0 to 100, 0 no effect, 100 complete control
Procedure, shortened: as §1

[8] = system: crabgrass, large (large crabgrass, Digitaria sanguinalis); conditions: for Plant response rating, Crabgrass, Large: scale 0 to 100, 0 no effect, 100 complete control
Procedure, shortened: as §1

[9] = system: foxtail, giant (giant foxtail, Setaria faberii); conditions: for Plant response rating, Foxtail, Giant: scale 0 to 100, 0 no effect, 100 complete control
Procedure, shortened: as §1

[10] = system: nutsedge, yellow (yellow nutsedge, Cyperus esculentus); conditions: for Plant response rating, Nutsedge, Yellow: scale 0 to 100, 0 no effect, 100 complete control
Procedure, shortened: as §1

[11] = system: morningglory (Ipomoea coccinea); conditions: for Plant response rating, Morningglory: scale 0 to 100, 0 no effect, 100 complete control
Procedure, shortened: as §1

[12] = system: velvetleaf (Abutilon theophrasti); conditions: for Plant response rating, Velvetleaf: scale 0 to 100, 0 no effect, 100 complete control
Procedure, shortened: as §1

[13] = system: soybean (Glycine max); conditions: for Plant response rating, Soybean: scale 0 to 100, 0 no effect, 100 complete control
Procedure, shortened: as §1

[14] = system: barnyardgrass (Echinochloa crus-galli); conditions: for Plant response rating, Barnyardgrass: scale 0 to 100, 0 no effect, 100 complete control
Procedure, shortened: as §1

[15] = system: ryegrass, Italian (Italian ryegrass, Lolium multiflorum); conditions: for Plant response rating, Ryegrass, Italian: scale 0 to 100, 0 no effect, 100 complete control
Procedure, shortened: as §1

[16] = system: oilseed rape (Brassica napus); conditions: for Plant response rating, Oilseed Rape: scale 0 to 100, 0 no effect, 100 complete control
Procedure, shortened: as §1

[17] = system: Galium (catchweed bedstraw, Galium aparine); conditions: for Plant response rating, Galium: scale 0 to 100, 0 no effect, 100 complete control
Procedure, shortened: as §1

[18] = system: wheat (winter wheat, Triticum aestivum); conditions: for Plant response rating, Wheat: scale 0 to 100, 0 no effect, 100 complete control
Procedure, shortened: as §1

[19] = 31 g ai/ha, 0 is no effect, 100 is complete control

For `CN1CC(c2ccc(F)c(F)c2)C(C(=O)Nc2ccccc2S(C)(=O)=O)C1=O` (stereo not drawn) [Compound 640], the “Plant response rating (scale of 0 to 100), Corn” value [1, 19] was 0, the “Plant response rating, Corn” value ([1]; 62 g ai/ha) was 0 and the “Plant response rating, Corn” value ([1]; 125 g ai/ha) was 0. For the same compound, the “Plant response rating, Corn” value ([1]; 250 g ai/ha) was 0, the “Plant response rating (scale of 0 to 100), Lambsquarters” value [2, 19] was 25 and the “Plant response rating, Lambsquarters” value ([2]; 62 g ai/ha) was 35. The “Plant response rating, Lambsquarters” value ([2]; 125 g ai/ha) was 50, the “Plant response rating, Lambsquarters” value ([2]; 250 g ai/ha) was 70 and the “Plant response rating (scale of 0 to 100), Blackgrass” value [3, 19] was 0. For the same compound, the “Plant response rating, Blackgrass” value ([3]; 62 g ai/ha) was 0, the “Plant response rating, Blackgrass” value ([3]; 125 g ai/ha) was 20 and the “Plant response rating, Blackgrass” value ([3]; 250 g ai/ha) was 50. For the same compound, the “Plant response rating (scale of 0 to 100), Waterhemp” value [4, 19] was 55, the “Plant response rating, Waterhemp” value ([4]; 62 g ai/ha) was 75 and the “Plant response rating, Waterhemp” value ([4]; 125 g ai/ha) was 70. The “Plant response rating, Waterhemp” value ([4]; 250 g ai/ha) was 85, the “Plant response rating (scale of 0 to 100), Johnsongrass” value [5, 19] was 0 and the “Plant response rating, Johnsongrass” value ([5]; 62 g ai/ha) was 0. For the same compound, the “Plant response rating, Johnsongrass” value ([5]; 125 g ai/ha) was 0, the “Plant response rating, Johnsongrass” value ([5]; 250 g ai/ha) was 40 and the “Plant response rating (scale of 0 to 100), Pigweed” value [6, 19] was 40. For the same compound, the “Plant response rating, Pigweed” value ([6]; 62 g ai/ha) was 50, the “Plant response rating, Pigweed” value ([6]; 125 g ai/ha) was 70 and the “Plant response rating, Pigweed” value ([6]; 250 g ai/ha) was 80. The “Plant response rating (scale of 0 to 100), Ragweed” value [7, 19] was 0, the “Plant response rating, Ragweed” value ([7]; 62 g ai/ha) was 40 and the “Plant response rating, Ragweed” value ([7]; 125 g ai/ha) was 70. For the same compound, the “Plant response rating, Ragweed” value ([7]; 250 g ai/ha) was 85, the “Plant response rating (scale of 0 to 100), Crabgrass, Large” value [8, 19] was 95 and the “Plant response rating, Crabgrass, Large” value ([8]; 62 g ai/ha) was 100. The “Plant response rating, Crabgrass, Large” value ([8]; 125 g ai/ha) was 98, the “Plant response rating, Crabgrass, Large” value ([8]; 250 g ai/ha) was 100 and the “Plant response rating (scale of 0 to 100), Foxtail, Giant” value [9, 19] was 85. For the same compound, the “Plant response rating, Foxtail, Giant” value ([9]; 62 g ai/ha) was 95, the “Plant response rating, Foxtail, Giant” value ([9]; 125 g ai/ha) was 95 and the “Plant response rating, Foxtail, Giant” value ([9]; 250 g ai/ha) was 95. The “Plant response rating (scale of 0 to 100), Nutsedge, Yellow” value [10, 19] was 0, the “Plant response rating, Nutsedge, Yellow” value ([10]; 62 g ai/ha) was 0 and the “Plant response rating, Nutsedge, Yellow” value ([10]; 125 g ai/ha) was 0. The “Plant response rating, Nutsedge, Yellow” value ([10]; 250 g ai/ha) was 0, the “Plant response rating (scale of 0 to 100), Morningglory” value [11, 19] was 0 and the “Plant response rating, Morningglory” value ([11]; 62 g ai/ha) was 0. The “Plant response rating, Morningglory” value ([11]; 125 g ai/ha) was 0, the “Plant response rating, Morningglory” value ([11]; 250 g ai/ha) was 0 and the “Plant response rating (scale of 0 to 100), Velvetleaf” value [12, 19] was 0. The “Plant response rating, Velvetleaf” value ([12]; 62 g ai/ha) was 0, the “Plant response rating, Velvetleaf” value ([12]; 125 g ai/ha) was 10 and the “Plant response rating, Velvetleaf” value ([12]; 250 g ai/ha) was 40. The “Plant response rating (scale of 0 to 100), Soybean” value [13, 19] was 0, the “Plant response rating, Soybean” value ([13]; 62 g ai/ha) was 0 and the “Plant response rating, Soybean” value ([13]; 125 g ai/ha) was 0. The “Plant response rating, Soybean” value ([13]; 250 g ai/ha) was 0, the “Plant response rating (scale of 0 to 100), Barnyardgrass” value [14, 19] was 80 and the “Plant response rating, Barnyardgrass” value ([14]; 62 g ai/ha) was 90. For the same compound, the “Plant response rating, Barnyardgrass” value ([14]; 125 g ai/ha) was 90, the “Plant response rating, Barnyardgrass” value ([14]; 250 g ai/ha) was 95 and the “Plant response rating (scale of 0 to 100), Ryegrass, Italian” value [15, 19] was 0. For the same compound, the “Plant response rating, Ryegrass, Italian” value ([15]; 62 g ai/ha) was 5, the “Plant response rating, Ryegrass, Italian” value ([15]; 125 g ai/ha) was 5 and the “Plant response rating, Ryegrass, Italian” value ([15]; 250 g ai/ha) was 40. The “Plant response rating (scale of 0 to 100), Oilseed Rape” value [16, 19] was 0, the “Plant response rating, Oilseed Rape” value ([16]; 62 g ai/ha) was 0 and the “Plant response rating, Oilseed Rape” value ([16]; 125 g ai/ha) was 5. The “Plant response rating, Oilseed Rape” value ([16]; 250 g ai/ha) was 80, the “Plant response rating (scale of 0 to 100), Galium” value [17, 19] was 98 and the “Plant response rating, Galium” value ([17]; 62 g ai/ha) was 80. For the same compound, the “Plant response rating, Galium” value ([17]; 125 g ai/ha) was 85, the “Plant response rating, Galium” value ([17]; 250 g ai/ha) was 90 and the “Plant response rating (scale of 0 to 100), Wheat” value [18, 19] was 0. The “Plant response rating, Wheat” value ([18]; 62 g ai/ha) was 20, the “Plant response rating, Wheat” value ([18]; 125 g ai/ha) was 45 and the “Plant response rating, Wheat” value ([18]; 250 g ai/ha) was 60.
